Data on eleven compounds can be found in ChEMBL document CHEMBL1201862, “PubChem BioAssay data set” (2004).

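Values below derive from 48-hour exposures of cells grown in 96-well plates, with endpoints linearly interpolated between the two concentrations bracketing the appropriate inhibition level. At the GI50, growth is halved.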 Active and inactive are the calls of the source. Rule as the data show it: active = GI50 up to about 1.1 µM and inactive = higher.

Test systems include HOP-62; PC-3; HCT-15; RXF 393; CAKI-1; SNB-19; SW-620; A549; HCC 2998; NCI-H522; SK-OV-3; M14; SF-268; ACHN; NCI/ADR-RES; MDA-N; HCT-116; SN12C; MDA-MB-231; HL-60.
What all share (test): NCI anticancer screen, dose series, 48 h

For `CCc1c(CN)c(CC)c(CNC2=NCCN2)c(CC)c1CNC1=NCCN1`, the GI50 was > 100 µM (inactive) with HOP-62; > 100 µM (inactive) with PC-3; greater than 100 µM in the assay with HCT-15; > 100 µM (inactive) in the assay on RXF 393; > 100 µM (inactive) in the assay with CAKI-1; > 100 µM (inactive) with SNB-19. For the same compound, the GI50 with SW-620, in the assay with A549, with HCC 2998, in the assay on NCI-H522, with SK-OV-3 and with M14 was > 100 µM (inactive) each time. In addition, the GI50 in the assay on SF-268, in the assay with ACHN, with NCI/ADR-RES, with MDA-N, in the assay on HCT-116 and in the assay on SN12C was > 100 µM (inactive) each time.

In the case of `CC(=O)O[C@H]1CC[C@@]2(C)C(=CC[C@H]3[C@@H]4C/C(=C\c5ccc(N(C)C)cc5)[C@H](OC(C)=O)[C@@]4(C)CC[C@@H]32)C1`, the GI50 is 14.1 µM (inactive) in the assay on HOP-62; 4.41 µM (inactive) with PC-3; 6.27 µM in the assay on HCT-15; 12.5 µM (inactive) with MDA-MB-231; 9.91 µM (inactive) in the assay on RXF 393; 13 µM (inactive) in the assay on SNB-19. Besides, the GI50 in the assay on SW-620 is 14.9 µM (inactive); with A549 it was 5.92 µM (inactive); with SK-OV-3, 43.4 µM (inactive); with M14, 14.2 µM (inactive); in the assay with SF-268 it was 12.7 µM (inactive); with ACHN, 8.71 µM (inactive). In addition, the GI50 is 11.5 µM (inactive) in the assay on HL-60; 13.1 µM (inactive) in the assay on NCI/ADR-RES; 13.5 µM (inactive) with MDA-N; 6.37 µM (inactive) in the assay on HCT-116; 14.7 µM (inactive) in the assay on SN12C.

Consider `CC(C)(C)OC(=O)CC(NC(=O)OC(C)(C)C)C(=O)Oc1ccc([N+](=O)[O-])cc1` (stereo unspecified), for which the GI50 with HOP-62 was > 100 µM (inactive); with PC-3 it was > 100 µM (inactive); in the assay with HCT-15, greater than 100 µM; with MDA-MB-231 it was > 100 µM (inactive); in the assay with RXF 393 it was > 100 µM (inactive); with CAKI-1, > 100 µM (inactive). In addition, the GI50 was > 100 µM (inactive) with SNB-19; > 100 µM (inactive) with SW-620; > 100 µM (inactive) in the assay on A549; > 100 µM (inactive) in the assay with NCI-H522; 29.9 µM (inactive) in the assay on SK-OV-3; > 100 µM (inactive) in the assay on M14. Also, the GI50 in the assay on SF-268 was 3.2 µM (inactive); in the assay with ACHN, > 100 µM (inactive); in the assay on NCI/ADR-RES, > 100 µM (inactive); in the assay on MDA-N it was > 100 µM (inactive); with HCT-116, > 100 µM (inactive); in the assay with SN12C, > 100 µM (inactive).

On to `O=C(/C(=C\I)c1ccccc1)c1ccccc1`, for which the GI50 was 4.19 µM (inactive) in the assay with HOP-62; 2.71 µM (inactive) with PC-3; 3.33 µM with HCT-15; 3.94 µM (inactive) with MDA-MB-231; 5.35 µM (inactive) in the assay on RXF 393; 1.51 µM (inactive) with CAKI-1. Also, the GI50 with SNB-19 was 8.95 µM (inactive); in the assay on SW-620 it was 4.57 µM (inactive); in the assay with A549, 22.4 µM (inactive); in the assay on HCC 2998, 3.94 µM (inactive); in the assay with NCI-H522 it was 4.86 µM (inactive); with SK-OV-3 it was 17.1 µM (inactive). Also, the GI50 with M14 was 15 µM (inactive); with SF-268 it was 13.9 µM (inactive); in the assay with ACHN it was 13 µM (inactive); in the assay with HL-60, 0.458 µM (active); in the assay with NCI/ADR-RES, 19.4 µM (inactive); in the assay with HCT-116, 11.6 µM (inactive). Moreover, the GI50 in the assay with SN12C was 18 µM (inactive).

With `Nc1c(F)c(F)c2c(c1F)N(CCCCCl)c1ccccc1S2`, the GI50 is > 100 µM (inactive) in the assay with HOP-62; > 100 µM (inactive) in the assay on PC-3; greater than 100 µM in the assay on HCT-15; > 100 µM (inactive) with MDA-MB-231; > 100 µM (inactive) with RXF 393; > 100 µM (inactive) with CAKI-1. Besides, the GI50 in the assay with SNB-19, in the assay with SW-620, in the assay with A549, in the assay with HCC 2998, in the assay on NCI-H522 and with SK-OV-3 was > 100 µM (inactive) in each case. Further, the GI50 in the assay with M14, with SF-268, with ACHN, with HL-60, in the assay on NCI/ADR-RES and in the assay with HCT-116 was > 100 µM (inactive) in each case. The GI50 in the assay with SN12C was > 100 µM (inactive).

As to `CC(=O)Nc1ccccc1NC1CC(C)N(c2ccccc2)N1C(C)=O` (stereo unspecified), the GI50 with HOP-62 is > 10 µM (inactive); in the assay on PC-3 it was > 10 µM (inactive); in the assay with HCT-15, greater than 10 µM; in the assay with MDA-MB-231 it was > 10 µM (inactive); in the assay with RXF 393, > 10 µM (inactive); in the assay with CAKI-1, > 10 µM (inactive). Also, the GI50 in the assay with SW-620, with A549, with HCC 2998, in the assay with SK-OV-3, with M14 and in the assay on SF-268 was > 10 µM (inactive) in each case. The GI50 with HL-60, in the assay with MDA-N and in the assay with SN12C was > 10 µM (inactive) each time.

Regarding `NC(=O)Cc1ncn(-c2ccccc2)n1`, the GI50 with HOP-62 was > 100 µM (inactive); in the assay with HCT-15 it was greater than 100 µM; with MDA-MB-231, > 100 µM (inactive); in the assay with RXF 393, > 100 µM (inactive); in the assay with CAKI-1 it was > 100 µM (inactive); in the assay on SNB-19, > 100 µM (inactive). Moreover, the GI50 in the assay with SW-620, with A549, with NCI-H522, in the assay on SK-OV-3, in the assay with M14 and with SF-268 was > 100 µM (inactive) throughout. Besides, the GI50 with ACHN, with HL-60, in the assay with NCI/ADR-RES, in the assay with MDA-N, with HCT-116 and in the assay on SN12C was > 100 µM (inactive) throughout.

With `COc1c(CC=C(C)C)c(O)c(C(CC(C)C)c2c(O)c(C(C)=O)c(O)c3c2OC(C(C)(C)O)C3)c(O)c1C(C)=O` (stereo unspecified) [ACROFOLIONE A], the GI50 is 3.86 µM in the assay with HCT-15; 2.88 µM (inactive) with RXF 393; 3.59 µM (inactive) in the assay with CAKI-1; 7.33 µM (inactive) in the assay on SNB-19; 6.25 µM (inactive) in the assay with SW-620; 7.96 µM (inactive) with A549. Besides, the GI50 was 4.46 µM (inactive) in the assay on HCC 2998; 3.39 µM (inactive) with NCI-H522; 5.56 µM (inactive) with M14; 5.33 µM (inactive) with SF-268; 4.31 µM (inactive) in the assay with ACHN; 1.97 µM (inactive) with HL-60. Besides, the GI50 in the assay with NCI/ADR-RES was 3.82 µM (inactive); with MDA-N it was 4.29 µM (inactive); with HCT-116, 3.68 µM (inactive); in the assay with SN12C it was 3.84 µM (inactive).

Regarding `COc1ccccc1C(=O)c1ccc2ccccc2c1`, the GI50 in the assay on HOP-62 was 33.7 µM (inactive); in the assay with PC-3 it was 23.8 µM (inactive); in the assay on HCT-15 it was 9.55 µM; with MDA-MB-231 it was 35.8 µM (inactive); with RXF 393 it was 22.5 µM (inactive); in the assay with CAKI-1, 13.8 µM (inactive). Further, the GI50 in the assay with SNB-19 is 19.5 µM (inactive); in the assay with SW-620 it was 8.3 µM (inactive); with A549, 17.9 µM (inactive); in the assay on HCC 2998 it was 51.8 µM (inactive); in the assay on NCI-H522, 5.85 µM (inactive); with M14, 11.9 µM (inactive). The GI50 in the assay on SF-268 was 30.5 µM (inactive); in the assay with ACHN, 41.2 µM (inactive); in the assay on HL-60, 3.21 µM (inactive); in the assay on NCI/ADR-RES, 41.3 µM (inactive); in the assay with HCT-116 it was 39.7 µM (inactive); with SN12C it was 28.1 µM (inactive).

In the case of `CC(=O)NNC(=O)C1CCCCN1` (stereo unspecified), the GI50 was > 100 µM (inactive) in the assay with HOP-62; > 100 µM (inactive) in the assay with PC-3; greater than 100 µM in the assay on HCT-15; > 100 µM (inactive) in the assay with MDA-MB-231; > 100 µM (inactive) in the assay on RXF 393; > 100 µM (inactive) in the assay with CAKI-1. Further, the GI50 in the assay with SNB-19, with SW-620, with A549, in the assay on NCI-H522, with SK-OV-3 and with M14 was > 100 µM (inactive) in each case. Besides, the GI50 in the assay on SF-268, in the assay on ACHN, with HL-60, in the assay on MDA-N, in the assay with HCT-116 and in the assay with SN12C was > 100 µM (inactive) in each case.

Take `COc1cc(C2c3cccc4cccc(c34)C3CCC(=O)N32)cc(O)c1O` (stereo unspecified): the GI50 in the assay with HOP-62 was 47.1 µM (inactive); in the assay on PC-3, 34.4 µM (inactive); in the assay with HCT-15, 23.7 µM; in the assay on RXF 393 it was > 50 µM (inactive); in the assay on SNB-19 it was > 50 µM (inactive); with SW-620, 28.6 µM (inactive). Besides, the GI50 with A549 is 31.2 µM (inactive); with SK-OV-3 it was > 50 µM (inactive); with M14 it was 43.7 µM (inactive); with ACHN, > 50 µM (inactive); with HL-60, 14.6 µM (inactive); in the assay with NCI/ADR-RES, 37.7 µM (inactive). The GI50 was 22.3 µM (inactive) with MDA-N, 20.7 µM (inactive) in the assay on HCT-116 and 41 µM (inactive) in the assay with SN12C.
